According to article PMC6429214, “Design, Synthesis and Biological Evaluation of Isoxazole-Based CK1 Inhibitors Modified with Chiral Pyrrolidine Scaffolds” (Molecules, 2019):

What was measured:
Test in all cases: 33PanQinase panel
Format in all cases: biochemical
MAP3K10 = target: T1, MAP3K10 (Homo sapiens, UniProt Q02779); settings: MAP3K10, 1 µM; read-out: Residual Activity (%)
T1 construct: purchased ProQinase
Outline: (§1)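 Single-point screen at 1 µM in a 320 wild-type kinase panel using activity-based radiometric 33P assay; final DMSO 1%. Values are percent residual kinase activity relative to DMSO control.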

MKK7 = target: T2, MKK7 (Homo sapiens, UniProt O14733); settings: MKK7, 1 µM; read-out: Residual Activity (%)
T2 construct: purchased ProQinase
Outline: as §1

TGFB-R2 = target: T3, TGFB-R2 (Homo sapiens, UniProt P37173); settings: TGFB-R2, 1 µM; read-out: Residual Activity (%)
T3 construct: purchased ProQinase
Outline: as §1

MINK1 = target: T4, MINK1 (Homo sapiens, UniProt Q8N4C8); settings: MINK1, 1 µM; read-out: Residual Activity (%)
T4 construct: purchased ProQinase
Outline: as §1

WNK1 = target: T5, WNK1 (Homo sapiens, UniProt Q9H4A3); settings: WNK1, 1 µM; read-out: Residual Activity (%)
T5 construct: purchased ProQinase
T5 sequence (Q9H4A3 whole entry): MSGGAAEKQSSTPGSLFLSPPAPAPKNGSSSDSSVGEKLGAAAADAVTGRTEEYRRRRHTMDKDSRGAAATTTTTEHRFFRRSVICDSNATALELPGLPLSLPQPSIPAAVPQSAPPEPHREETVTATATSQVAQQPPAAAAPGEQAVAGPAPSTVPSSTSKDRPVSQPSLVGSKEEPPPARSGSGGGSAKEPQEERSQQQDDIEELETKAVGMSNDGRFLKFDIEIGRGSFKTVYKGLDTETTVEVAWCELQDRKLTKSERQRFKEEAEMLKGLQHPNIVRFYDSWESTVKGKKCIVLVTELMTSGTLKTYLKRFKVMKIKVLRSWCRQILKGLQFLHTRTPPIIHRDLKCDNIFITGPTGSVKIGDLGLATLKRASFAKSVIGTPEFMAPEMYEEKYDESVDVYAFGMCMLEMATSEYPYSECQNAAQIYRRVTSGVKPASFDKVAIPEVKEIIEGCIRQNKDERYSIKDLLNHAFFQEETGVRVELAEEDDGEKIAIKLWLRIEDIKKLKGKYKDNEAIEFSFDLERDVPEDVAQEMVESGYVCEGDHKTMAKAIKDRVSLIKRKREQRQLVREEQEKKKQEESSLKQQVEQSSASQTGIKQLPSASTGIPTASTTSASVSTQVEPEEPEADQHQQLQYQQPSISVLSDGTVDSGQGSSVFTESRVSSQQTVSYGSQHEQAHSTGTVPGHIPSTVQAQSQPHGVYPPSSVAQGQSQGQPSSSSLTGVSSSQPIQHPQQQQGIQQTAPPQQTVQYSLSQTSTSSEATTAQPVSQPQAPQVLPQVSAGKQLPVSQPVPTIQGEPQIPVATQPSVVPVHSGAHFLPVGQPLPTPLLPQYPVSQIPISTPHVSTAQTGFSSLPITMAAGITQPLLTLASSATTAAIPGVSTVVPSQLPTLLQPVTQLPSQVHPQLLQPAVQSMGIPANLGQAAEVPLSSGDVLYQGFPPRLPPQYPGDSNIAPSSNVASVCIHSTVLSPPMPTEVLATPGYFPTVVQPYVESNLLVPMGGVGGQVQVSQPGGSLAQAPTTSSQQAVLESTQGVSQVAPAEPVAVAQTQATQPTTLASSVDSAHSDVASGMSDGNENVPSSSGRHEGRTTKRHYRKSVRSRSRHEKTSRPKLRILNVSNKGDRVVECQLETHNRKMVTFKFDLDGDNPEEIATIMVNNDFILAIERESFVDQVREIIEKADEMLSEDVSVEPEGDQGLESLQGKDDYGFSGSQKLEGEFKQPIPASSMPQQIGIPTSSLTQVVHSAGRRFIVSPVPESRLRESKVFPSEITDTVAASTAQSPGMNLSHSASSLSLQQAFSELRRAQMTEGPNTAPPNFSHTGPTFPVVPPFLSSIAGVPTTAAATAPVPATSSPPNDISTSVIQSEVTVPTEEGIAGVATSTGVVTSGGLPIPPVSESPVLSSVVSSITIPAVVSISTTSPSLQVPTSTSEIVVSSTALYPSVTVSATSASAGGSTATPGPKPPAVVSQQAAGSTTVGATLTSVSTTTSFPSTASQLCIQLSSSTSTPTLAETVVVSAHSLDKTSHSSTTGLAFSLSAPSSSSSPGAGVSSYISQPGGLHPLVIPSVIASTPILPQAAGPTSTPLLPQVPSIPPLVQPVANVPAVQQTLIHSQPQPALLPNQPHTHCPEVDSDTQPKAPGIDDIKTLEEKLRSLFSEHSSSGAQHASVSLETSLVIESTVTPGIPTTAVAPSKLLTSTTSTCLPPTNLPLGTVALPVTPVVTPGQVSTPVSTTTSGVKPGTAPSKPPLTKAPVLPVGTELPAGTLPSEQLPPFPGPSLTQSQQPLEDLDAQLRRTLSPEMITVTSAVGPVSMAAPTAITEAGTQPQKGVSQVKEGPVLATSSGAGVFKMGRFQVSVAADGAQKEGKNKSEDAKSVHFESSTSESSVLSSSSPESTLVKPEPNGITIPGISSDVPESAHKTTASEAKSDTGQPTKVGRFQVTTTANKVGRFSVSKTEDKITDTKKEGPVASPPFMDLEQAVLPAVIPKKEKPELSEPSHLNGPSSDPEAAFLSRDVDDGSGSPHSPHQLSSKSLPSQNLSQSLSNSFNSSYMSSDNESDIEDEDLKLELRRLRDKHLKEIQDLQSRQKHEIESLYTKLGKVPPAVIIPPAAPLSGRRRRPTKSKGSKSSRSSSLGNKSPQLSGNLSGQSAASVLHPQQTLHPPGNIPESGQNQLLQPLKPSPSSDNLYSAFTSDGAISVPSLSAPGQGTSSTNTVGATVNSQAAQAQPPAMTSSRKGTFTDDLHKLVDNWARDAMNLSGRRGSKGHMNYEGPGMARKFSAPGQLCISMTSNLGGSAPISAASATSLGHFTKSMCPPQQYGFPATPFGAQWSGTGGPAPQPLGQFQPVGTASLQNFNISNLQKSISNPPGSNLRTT
Outline: as §1

MEKK3 = target: T6, MEKK3 (Homo sapiens, UniProt Q99759); settings: MEKK3, 1 µM; read-out: Residual Activity (%)
T6 construct: purchased ProQinase
Outline: as §1

STK23 = target: T7, STK23 (Homo sapiens, UniProt Q9UPE1); settings: STK23, 1 µM; read-out: Residual Activity (%)
T7 construct: purchased ProQinase
Outline: as §1

NEK6 = target: T8, NEK6 (Homo sapiens, UniProt Q9HC98); settings: NEK6, 1 µM; read-out: Residual Activity (%)
T8 construct: purchased ProQinase
T8 sequence (Q9HC98 whole entry): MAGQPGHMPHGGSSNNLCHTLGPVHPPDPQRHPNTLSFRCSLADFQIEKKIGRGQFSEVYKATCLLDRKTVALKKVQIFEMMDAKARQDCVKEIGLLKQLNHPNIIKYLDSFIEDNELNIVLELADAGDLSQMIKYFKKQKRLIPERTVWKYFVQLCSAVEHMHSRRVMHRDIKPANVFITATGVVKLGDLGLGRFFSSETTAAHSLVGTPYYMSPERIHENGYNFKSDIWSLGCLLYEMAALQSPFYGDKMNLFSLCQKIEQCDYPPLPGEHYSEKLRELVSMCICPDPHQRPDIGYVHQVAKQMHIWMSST
Outline: as §1

CLK4 = target: T9, CLK4 (Homo sapiens, UniProt Q9HAZ1); settings: CLK4, 1 µM; read-out: Residual Activity (%)
T9 construct: purchased ProQinase
Outline: as §1

ASK1 = target: T10, ASK1 (Homo sapiens, UniProt Q99683); settings: ASK1, 1 µM; read-out: Residual Activity (%)
T10 construct: purchased ProQinase
Outline: as §1

RPS6KA6 = target: T11, RPS6KA6 (Homo sapiens, UniProt Q9UK32); settings: RPS6KA6, 1 µM; read-out: Residual Activity (%)
T11 construct: purchased ProQinase
Outline: as §1

MAP4K2 = target: T12, MAP4K2 (Homo sapiens, UniProt Q12851); settings: MAP4K2, 1 µM; read-out: Residual Activity (%)
T12 construct: purchased ProQinase
Outline: as §1

MAP3K1 = target: T13, MAP3K1 (Homo sapiens, UniProt Q13233); settings: MAP3K1, 1 µM; read-out: Residual Activity (%)
T13 construct: purchased ProQinase
Outline: as §1

TNK1 = target: T14, TNK1 (Homo sapiens, UniProt Q13470); settings: TNK1, 1 µM; read-out: Residual Activity (%)
T14 construct: purchased ProQinase
Outline: as §1

CDK3/CycE1 = target: T15, CDK3/CycE1 (Homo sapiens, UniProt Q00526); settings: CDK3/CycE1, 1 µM; read-out: Residual Activity (%)
T15 construct: purchased ProQinase
Outline: as §1

CK1-alpha1 = target: T16, CK1-alpha1 (Homo sapiens, UniProt P48729); settings: CK1-alpha1, 1 µM; read-out: Residual Activity (%)
T16 construct: purchased ProQinase
Outline: as §1

MAP4K5 = target: T17, MAP4K5 (Homo sapiens, UniProt Q9Y4K4); settings: MAP4K5, 1 µM; read-out: Residual Activity (%)
T17 construct: purchased ProQinase
T17 sequence (Q9Y4K4 whole entry): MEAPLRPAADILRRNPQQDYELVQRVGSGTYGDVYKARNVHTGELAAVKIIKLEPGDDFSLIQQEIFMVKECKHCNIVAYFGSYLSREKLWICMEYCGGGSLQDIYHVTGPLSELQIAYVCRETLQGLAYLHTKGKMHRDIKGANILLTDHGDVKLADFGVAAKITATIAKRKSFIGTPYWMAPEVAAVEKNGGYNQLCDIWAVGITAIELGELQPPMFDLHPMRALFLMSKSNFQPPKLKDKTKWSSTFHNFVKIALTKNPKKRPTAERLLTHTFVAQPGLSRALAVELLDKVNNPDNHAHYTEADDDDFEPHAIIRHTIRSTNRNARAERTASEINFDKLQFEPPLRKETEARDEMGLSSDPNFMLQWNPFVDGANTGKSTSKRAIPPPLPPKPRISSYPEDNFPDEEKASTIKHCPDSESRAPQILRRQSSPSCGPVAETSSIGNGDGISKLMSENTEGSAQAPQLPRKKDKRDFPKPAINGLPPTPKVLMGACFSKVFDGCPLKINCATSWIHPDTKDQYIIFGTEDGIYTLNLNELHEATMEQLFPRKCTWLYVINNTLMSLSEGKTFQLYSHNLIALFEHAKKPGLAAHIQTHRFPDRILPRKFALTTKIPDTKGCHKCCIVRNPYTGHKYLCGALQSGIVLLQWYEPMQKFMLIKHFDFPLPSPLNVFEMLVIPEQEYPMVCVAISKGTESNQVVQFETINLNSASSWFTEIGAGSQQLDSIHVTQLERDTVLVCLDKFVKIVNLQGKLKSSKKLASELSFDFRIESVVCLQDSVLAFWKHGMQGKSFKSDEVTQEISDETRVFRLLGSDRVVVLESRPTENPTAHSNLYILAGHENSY
Outline: as §1

PKC-alpha = target: T18, PKC-alpha (Homo sapiens, UniProt P17252); settings: read-out: Residual Activity (%)
T18 construct: purchased ProQinase
Outline: as §1

IKK-alpha = target: T19, IKK-alpha (Homo sapiens, UniProt O15111); settings: read-out: Residual Activity (%)
T19 construct: purchased ProQinase
T19 sequence (O15111 whole entry): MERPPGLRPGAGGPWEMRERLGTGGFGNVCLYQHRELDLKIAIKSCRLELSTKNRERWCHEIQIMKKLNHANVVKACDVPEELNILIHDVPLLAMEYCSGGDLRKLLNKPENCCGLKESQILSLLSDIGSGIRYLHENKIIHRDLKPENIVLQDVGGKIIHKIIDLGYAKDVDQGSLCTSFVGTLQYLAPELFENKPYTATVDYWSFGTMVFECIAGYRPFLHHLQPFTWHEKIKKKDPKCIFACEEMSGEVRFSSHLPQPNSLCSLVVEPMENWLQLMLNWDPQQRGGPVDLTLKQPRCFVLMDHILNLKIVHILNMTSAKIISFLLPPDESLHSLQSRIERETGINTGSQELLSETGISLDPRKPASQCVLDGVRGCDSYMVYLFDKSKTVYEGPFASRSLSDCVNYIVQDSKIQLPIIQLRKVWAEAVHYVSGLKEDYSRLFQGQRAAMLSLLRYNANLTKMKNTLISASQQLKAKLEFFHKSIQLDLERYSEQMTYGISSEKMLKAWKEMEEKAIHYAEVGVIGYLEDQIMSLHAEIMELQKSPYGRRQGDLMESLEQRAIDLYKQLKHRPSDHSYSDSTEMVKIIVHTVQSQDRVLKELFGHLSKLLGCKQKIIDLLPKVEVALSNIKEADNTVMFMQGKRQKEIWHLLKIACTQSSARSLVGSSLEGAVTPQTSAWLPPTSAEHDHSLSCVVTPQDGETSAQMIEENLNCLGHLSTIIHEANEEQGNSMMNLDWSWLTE
Outline: as §1

MELK = target: T20, MELK (Homo sapiens, UniProt Q14680); settings: read-out: Residual Activity (%)
T20 construct: purchased ProQinase
Outline: as §1

EPHA1 = target: T21, EPHA1 (Homo sapiens, UniProt P21709); settings: EPHA1, 1 µM; read-out: Residual Activity (%)
T21 construct: purchased ProQinase
Outline: as §1

SNK = target: T22, SNK (Homo sapiens, UniProt Q9NYY3); settings: read-out: Residual Activity (%)
T22 construct: purchased ProQinase
T22 sequence (Q9NYY3 whole entry): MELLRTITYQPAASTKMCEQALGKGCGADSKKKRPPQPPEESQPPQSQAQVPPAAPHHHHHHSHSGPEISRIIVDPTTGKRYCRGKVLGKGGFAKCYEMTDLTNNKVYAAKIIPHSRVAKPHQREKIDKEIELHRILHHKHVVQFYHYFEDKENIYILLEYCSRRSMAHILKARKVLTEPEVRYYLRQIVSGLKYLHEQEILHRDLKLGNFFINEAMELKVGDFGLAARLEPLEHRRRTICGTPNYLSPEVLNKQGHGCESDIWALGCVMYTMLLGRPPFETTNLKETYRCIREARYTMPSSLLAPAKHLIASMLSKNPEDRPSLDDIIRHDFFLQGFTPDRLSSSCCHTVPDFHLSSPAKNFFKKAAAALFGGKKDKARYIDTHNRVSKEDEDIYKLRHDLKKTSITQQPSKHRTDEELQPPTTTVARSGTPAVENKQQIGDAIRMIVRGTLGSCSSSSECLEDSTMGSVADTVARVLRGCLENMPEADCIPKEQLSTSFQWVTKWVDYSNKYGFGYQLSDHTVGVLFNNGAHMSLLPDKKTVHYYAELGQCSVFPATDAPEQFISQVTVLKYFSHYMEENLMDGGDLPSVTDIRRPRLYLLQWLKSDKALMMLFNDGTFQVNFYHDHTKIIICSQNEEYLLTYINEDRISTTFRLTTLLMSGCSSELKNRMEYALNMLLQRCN
Outline: as §1

CDK9/CycT1 = target: T23, CDK9/CycT1 (Homo sapiens, UniProt P50750); settings: CDK9/CycT1, 1 µM; read-out: Residual Activity (%)
T23 construct: purchased ProQinase
Outline: as §1

SRMS = target: T24, SRMS (Homo sapiens, UniProt Q9H3Y6); settings: read-out: Residual Activity (%)
T24 construct: purchased ProQinase
Outline: as §1

PDGFR-alpha = target: T25, PDGFR-alpha (Homo sapiens, UniProt P16234); settings: read-out: Residual Activity (%)
T25 construct: purchased ProQinase
Outline: as §1

WNK3 = target: T26, WNK3 (Homo sapiens, UniProt Q9BYP7); settings: WNK3, 1 µM; read-out: Residual Activity (%)
T26 construct: purchased ProQinase
Outline: as §1

Molecule `COc1ccc(-c2cc(C(=O)Nc3cc(-c4c(-c5ccc(F)cc5)noc4C(C)C)ccn3)n(CC3NCC(O)C3O)c2)cc1` (centres unmarked) [29d] has a remaining activity at 1 µM (MAP3K10) of 120%, a remaining activity at 1 µM (MKK7) of 95% and a remaining activity at 1 µM (TGFB-R2) of 69%. The remaining activity at 1 µM (MINK1) was 82%, the remaining activity at 1 µM (WNK1) was 90% and the remaining activity at 1 µM (MEKK3) was 104%. The remaining activity at 1 µM (STK23) was 96%, the remaining activity at 1 µM (NEK6) was 94% and the remaining activity at 1 µM (CLK4) was 104%. It also gave a remaining activity at 1 µM (ASK1) of 107%, a remaining activity at 1 µM (RPS6KA6) of 89% and a remaining activity at 1 µM (MAP4K2) of 93%. The remaining activity at 1 µM (MAP3K1) was 94%, the remaining activity at 1 µM (TNK1) was 104% and the remaining activity at 1 µM (CDK3/CycE1) was 103%. It also gave a remaining activity at 1 µM (CK1-alpha1) of 16%, a remaining activity at 1 µM (MAP4K5) of 96% and a remaining activity at 1 µM (PKC-alpha) of 107%. The remaining activity at 1 µM (IKK-alpha) was 98%, the remaining activity at 1 µM (MELK) was 107% and the remaining activity at 1 µM (EPHA1) was 120%. For the same molecule, the remaining activity at 1 µM (SNK) was 108%, the remaining activity at 1 µM (CDK9/CycT1) was 103% and the remaining activity at 1 µM (SRMS) was 127%. The remaining activity at 1 µM (PDGFR-alpha) was 89% and the remaining activity at 1 µM (WNK3) was 103%.
